Measurements published in PubChem BioAssay AID248 (DTP/NCI, 2004).
Values joined by “and” are separate entries in the source; they are usually repeats but may differ in a detail not shown here. Equal entries are not always repeated. Inconclusive results and toxic doses are left out. Cut-off read from the data, not from the text of the source: active = T/C of 150% or more; inactive = T/C below 125%.

System: L1210 leukemia ip in BDF1 mice, survival T/C
Assay: NCI In Vivo Anticancer Drug Screen. Data for tumor model L1210 Leukemia (intraperitoneal) in B6D2F1 (BDF1) mice
Settings: endpoint: mean survival time, higher = longer survival
How it was run: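 Mice bearing the transplanted tumor received compound or vehicle. Survival of the treated group was divided by that of the vehicle-treated control group to give the ratio.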

[1] = dose: 100.0 mg/kg/injection, schedule: Q04DX003 (ip), vehicle: saline
[2] = dose: 200.0 mg/kg/injection, schedule: Q04DX003 (ip), vehicle: saline
[3] = dose: 400.0 mg/kg/injection, schedule: Q04DX003 (ip), vehicle: saline
[4] = dose: 6.25 mg/kg/injection, schedule: Q01DX009 (ip), vehicle: saline
[5] = dose: 50.0 mg/kg/injection, schedule: Q04DX002 (ip), vehicle: saline
[6] = dose: 100.0 mg/kg/injection, schedule: Q01DX001 (ip), vehicle: saline
[7] = dose: 200.0 mg/kg/injection, schedule: Q01DX001 (ip), vehicle: saline
[8] = dose: 100.0 mg/kg/injection, schedule: Q01DX009 (ip), vehicle: Klucel (hydroxypropylcellulose) (HPC)
[9] = dose: 100.0 mg/kg/injection, schedule: Q04DX003 (ip), vehicle: Klucel (hydroxypropylcellulose) (HPC)
[10] = dose: 200.0 mg/kg/injection, schedule: Q01DX009 (ip), vehicle: Klucel (hydroxypropylcellulose) (HPC)
[11] = dose: 200.0 mg/kg/injection, schedule: Q04DX003 (ip), vehicle: Klucel (hydroxypropylcellulose) (HPC)
[12] = dose: 400.0 mg/kg/injection, schedule: Q01DX009 (ip), vehicle: Klucel (hydroxypropylcellulose) (HPC)
[13] = dose: 400.0 mg/kg/injection, schedule: Q04DX003 (ip), vehicle: Klucel (hydroxypropylcellulose) (HPC)
[14] = dose: 100.0 mg/kg/injection, schedule: Q04DX002 (ip), vehicle: Klucel (hydroxypropylcellulose) (HPC)
[15] = dose: 200.0 mg/kg/injection, schedule: Q04DX002 (ip), vehicle: Klucel (hydroxypropylcellulose) (HPC)
[16] = dose: 400.0 mg/kg/injection, schedule: Q04DX002 (ip), vehicle: Klucel (hydroxypropylcellulose) (HPC)
[17] = dose: 100.0 mg/kg/injection, schedule: Q04DX002 (ip), vehicle: saline with Tween-80
[18] = dose: 200.0 mg/kg/injection, schedule: Q04DX002 (ip), vehicle: saline with Tween-80
[19] = dose: 400.0 mg/kg/injection, schedule: Q04DX002 (ip), vehicle: saline with Tween-80
[20] = dose: 100.0 mg/kg/injection, schedule: Q01DX009 (ip), vehicle: saline with Tween-80
[21] = dose: 200.0 mg/kg/injection, schedule: Q01DX009 (ip), vehicle: saline with Tween-80
[22] = dose: 100.0 mg/kg/injection, schedule: Q01DX001 (ip), vehicle: carboxymethylcellulose (CMC)
[23] = dose: 200.0 mg/kg/injection, schedule: Q01DX001 (ip), vehicle: carboxymethylcellulose (CMC)

Measured: T/C

Br/C=C/C1=CCCCC1
inactive: dose: 100.0 mg/kg/injection, schedule: Q01DX009 (ip), vehicle: acetone 98 % of control | [1] 97 % of control | dose: 200.0 mg/kg/injection, schedule: Q01DX009 (ip), vehicle: acetone 90 % of control | [2] 92 % of control | [3] 114 % of control

CN(C(N)=O)c1c(O)nc(N)[nH]c1=O
inactive: dose: 25.0 mg/kg/injection, schedule: Q01DX009 (ip), vehicle: water 98 % of control | dose: 50.0 mg/kg/injection, schedule: Q01DX009 (ip), vehicle: water 98 % of control | dose: 50.0 mg/kg/injection, schedule: Q04DX003 (ip), vehicle: water 108 % of control | dose: 100.0 mg/kg/injection, schedule: Q01DX009 (ip), vehicle: water 102 % of control | dose: 100.0 mg/kg/injection, schedule: Q04DX003 (ip), vehicle: water 97 % of control | dose: 150.0 mg/kg/injection, schedule: Q01DX009 (ip), vehicle: water 105 % of control | dose: 200.0 mg/kg/injection, schedule: Q04DX003 (ip), vehicle: water 90 % of control

NC(CSS(=O)(=O)O)=NC1CC2CCC1C2 (centres undefined)
inactive: dose: 6.25 mg/kg/injection, schedule: Q01DX001 (ip), vehicle: saline 97 % of control | dose: 6.25 mg/kg/injection, schedule: Q01DX009 (ip), vehicle: Klucel (hydroxypropylcellulose) (HPC) 98 % of control | [4] 95 % of control and 103 % of control | dose: 6.25 mg/kg/injection, schedule: Q04DX002 (ip), vehicle: saline 112 % of control and 117 % of control | dose: 12.5 mg/kg/injection, schedule: Q01DX001 (ip), vehicle: saline 95 % of control | dose: 12.5 mg/kg/injection, schedule: Q01DX009 (ip), vehicle: Klucel (hydroxypropylcellulose) (HPC) 95 % of control | dose: 12.5 mg/kg/injection, schedule: Q01DX009 (ip), vehicle: saline 100 % of control and 91 % of control | dose: 12.5 mg/kg/injection, schedule: Q04DX002 (ip), vehicle: Klucel (hydroxypropylcellulose) (HPC) 100 % of control | dose: 12.5 mg/kg/injection, schedule: Q04DX002 (ip), vehicle: saline 101 % of control and 87 % of control | dose: 25.0 mg/kg/injection, schedule: Q01DX001 (ip), vehicle: saline with Tween-80 112 % of control | dose: 25.0 mg/kg/injection, schedule: Q01DX001 (ip), vehicle: saline 92 % of control | dose: 25.0 mg/kg/injection, schedule: Q01DX009 (ip), vehicle: Klucel (hydroxypropylcellulose) (HPC) 104 % of control | dose: 25.0 mg/kg/injection, schedule: Q01DX009 (ip), vehicle: saline 94 % of control and 88 % of control | dose: 25.0 mg/kg/injection, schedule: Q04DX002 (ip), vehicle: Klucel (hydroxypropylcellulose) (HPC) 92 % of control | [5] 117 % of control

CCC1(C)NC(C(=O)O)CS1 (centres undefined)
inactive: [1] 105 % of control | [2] 107 % of control | [3] 100 % of control

Cc1cccc2c1ccc1cc(C(C)C)ccc12
inactive: dose: 75.0 mg/kg/injection, schedule: Q01DX009 (ip), vehicle: Klucel (hydroxypropylcellulose) (HPC) 106 % of control | dose: 150.0 mg/kg/injection, schedule: Q01DX009 (ip), vehicle: Klucel (hydroxypropylcellulose) (HPC) 105 % of control | dose: 300.0 mg/kg/injection, schedule: Q01DX009 (ip), vehicle: Klucel (hydroxypropylcellulose) (HPC) 98 % of control

CC1OC(O)C(N)C(O)C1O (centres undefined)
inactive: [6] 107 % of control | [7] 106 % of control | dose: 400.0 mg/kg/injection, schedule: Q01DX001 (ip), vehicle: saline 106 % of control

NCC(=O)c1cc2ccccc2[n+]([O-])c1
inactive: [8] 87 % of control | [9] 92 % of control | [10] 93 % of control | [11] 97 % of control | [12] 93 % of control | [13] 97 % of control

Cc1ccc([N+](=O)[O-])cc1NC(=O)OCC1CCCO1 (centres undefined)
inactive: [14] 87 % of control | [15] 87 % of control | [16] 97 % of control

C=C(NC(=O)C(=C)NC(=O)c1csc(C2=NC3c4csc(n4)C4NC(=O)c5csc(n5)C(C(C)(O)C(C)O)NC(=O)C5CSC(=N5)/C(=C/C)NC(=O)C(C(C)O)NC(=O)c5csc(n5)C3(CC2)NC(=O)C(C)NC(=O)C(=C)NC(=O)C(=C)NC(=O)C(C(C)C)NC2C=Cc3c(C(C)O)cc(nc3C2O)C(=O)OC4C)n1)C(N)=O (centres undefined)
inactive: dose: 3.12 mg/kg/injection, schedule: Q01DX009 (ip), vehicle: saline 101 % of control | [4] 117 % of control

CC(C)(O)S(=O)(=O)O
inactive: [17] 95 % of control | [18] 101 % of control | [19] 98 % of control

CCCCCCCCCC(=O)Nc1ccc(C)cc1C
inactive: [14] 97 % of control | [15] 101 % of control | [16] 90 % of control

CCC1(CCC#N)CCC(N)=CC1=O (centres undefined)
inactive: [20] 97 % of control | [21] 106 % of control | dose: 400.0 mg/kg/injection, schedule: Q01DX009 (ip), vehicle: saline with Tween-80 97 % of control

CCOCCOCCCNCC(=O)N1CCN(C(=O)CNCCCOCCOCC)CC1
inactive: dose: 50.0 mg/kg/injection, schedule: Q01DX001 (ip), vehicle: carboxymethylcellulose (CMC) 97 % of control | [22] 98 % of control | [23] 108 % of control | dose: 400.0 mg/kg/injection, schedule: Q01DX001 (ip), vehicle: carboxymethylcellulose (CMC) 103 % of control

O=C(Oc1ccc([N+](=O)[O-])cc1)c1ccc(C[P+](c2ccccc2)(c2ccccc2)c2ccccc2)cc1
inactive: dose: 100.0 mg/kg/injection, schedule: Q01DX009 (ip), vehicle: saline 98 % of control | [1] 93 % of control | dose: 200.0 mg/kg/injection, schedule: Q01DX009 (ip), vehicle: saline 98 % of control | [2] 90 % of control | dose: 400.0 mg/kg/injection, schedule: Q01DX009 (ip), vehicle: saline 96 % of control | [3] 93 % of control

COc1ccc(NC(=S)Nc2ccccc2S)cc1
inactive: [20] 90 % of control | [17] 97 % of control | [21] 97 % of control | [18] 97 % of control | [19] 97 % of control

O=C1CC(C(=O)O)C(C(=O)O)O1 (centres undefined)
inactive: dose: 50.0 mg/kg/injection, schedule: Q01DX001 (ip), vehicle: saline 97 % of control | dose: 75.0 mg/kg/injection, schedule: Q01DX001 (ip), vehicle: saline 101 % of control | [6] 92 % of control | dose: 150.0 mg/kg/injection, schedule: Q01DX001 (ip), vehicle: saline 97 % of control | [7] 90 % of control

CCC(C)(C)c1cccc2ccccc12
inactive: [8] 96 % of control | [9] 102 % of control | [10] 100 % of control | [11] 106 % of control | [12] 86 % of control | [13] 101 % of control

COC(=O)c1ncccc1C(=O)O
inactive: dose: 50.0 mg/kg/injection, schedule: Q01DX009 (ip), vehicle: saline with Tween-80 96 % of control | [20] 93 % of control

CC(=O)c1c(O)cc(O)cc1-c1cc(=O)c2c(O)ccc(C(C)=O)c2o1
inactive: [22] 103 % of control | [23] 94 % of control

O=CC(C(O)C(O)C(O)CO)N1CCN(C(C=O)C(O)C(O)C(O)CO)CC1 (centres undefined)
inactive: [5] 95 % of control | dose: 100.0 mg/kg/injection, schedule: Q04DX002 (ip), vehicle: saline 107 % of control | dose: 200.0 mg/kg/injection, schedule: Q04DX002 (ip), vehicle: saline 107 % of control
